{"source": "patent US12171743B2", "about": "“Forms of aticaprant” (Janssen Pharmaceuticals, Inc., priority 2022, dated 2024)", "format_in_all_cases": "in vivo, human", "key": {"subjects with MDD [1]": {"test_system": "subjects with MDD", "experiment": "Treatment-emergent adverse events, full safety analysis set"}, "subjects with MDD [2]": {"test_system": "subjects with MDD", "experiment": "ASEX sexual functioning score", "excerpt": "As used herein, the term “decrease in sexual functioning” refers to reducing or lessening of one or more components of the human sex drive, i.e., sexual functioning. In some embodiments, the sexual functioning comprises one or more of sexual drive, sexual arousal, vaginal lubrication, erection, orgasm achievement, or orgasm satisfaction. In other embodiments, the sexual functioning comprises sexual drive. In further embodiments, the sexual functioning comprises vaginal lubrication satisfaction. In further embodiments, the sexual functioning comprises orgasm achievement. In yet other embodiments, the sexual functioning comprises orgasm satisfaction. Desirably, the patient's sexual functioning is assessed at the time of initial administration of the crystalline Form I of aticaprant, crystalline Form II of aticaprant, crystalline Form III of aticaprant, or amorphous aticaprant. Thus, the patient's sexual functioning while taking crystalline Form I of aticaprant, crystalline Form II of aticaprant, crystalline Form III of aticaprant, or amorphous aticaprant can be compared to the patient's sexual functioning before administration of crystalline Form I of aticaprant, crystalline Form II of aticaprant, crystalline Form III of aticaprant, or amorphous aticaprant. Sexual functioning may be assessed by using standard scales and techniques such as the Arizona Sexual Experience Scale (ASEX). The ASEX is used to investigate whether crystalline Form I of aticaprant, crystalline Form II of aticaprant, crystalline Form III of aticaprant, or amorphous aticaprant has a further positive or negative effect on sexual function. The ASEX is 5 item rating scale administered to patients that quantifies sexual drive, sexual arousal, vaginal lubrication or penile erection, ability to reach orgasm and satisfaction. Scores range from 5 to 30, and two different versions of the scale are available (males and females).\nPatients had their sexual functioning measured using a standard, well accepted rating scale: ASEX. See, Table 68."}, "subjects with MDD [3]": {"test_system": "subjects with MDD", "experiment": "HAM-A6 total score (anxiety), same study", "conditions": "Treatment Week 6", "excerpt": "The secondary objectives are: • i. […] To investigate the effect of aticaprant versus placebo on depression related anhedonia as assessed by the SHAPS. • iv. To investigate the effect of aticaprant on symptoms of depression using the Clinical Global Impression-Severity (CGI-S), the patient reported Symptoms of Major Depressive Disorder Scale (SMDDS) and the self-assessment of treatment experience (SATE). • V. To investigate the effect of aticaprant on symptoms of anxiety using the HAM-A and on core symptoms of anxiety using the HAM-A6 subscale. • vi. To assess the plasma PK of aticaprant in subjects with MDD and explore its relationship with efficacy and safety parameters.\n• (i) Depression: Montgomery-Åsberg Depression Rating Scale (MADRS), Clinical Global Impression-Severity (CGI-S), Symptoms of Major Depressive Disorder Scale (SMDDS), and Self-assessment of treatment experience (SATE) • (ii) Anhedonia: Snaith-Hamilton Pleasure Scale (SHAPS) • (iii) Anxiety: Structured Interview Guide for the Hamilton Anxiety scale (SIGH-A) and HAM-A6 • (iv) Effects on Cognition: The Cognitive and Physical Functioning Questionnaire (CPFQ) • (v) Safety assessments"}, "[4]": {"conditions": "Treatment Period, Full Safety Analysis Set, aticaprant 10 mg (N = 85)"}}}
{"smiles": "Cc1cc(C)cc(C2CCCN2Cc2ccc(Oc3ccc(C(N)=O)cc3F)cc2)c1", "note": "(centres unmarked) [aticaprant, 3-fluoro-4-4-2-(3,5-dimethylphenyl) pyrrolidin-1-yl-methylphenoxybenzamide]", "values": [{"measurement": "Subjects with 1 or more serious TEAE", "setting": "subjects with MDD [1]; [4]", "result": 0, "unit": "n"}, {"measurement": "Subjects with TEAE leading to death", "setting": "subjects with MDD [1]; [4]", "result": 0, "unit": "n"}, {"measurement": "TEAE of Special Interest: Abdominal Pain Upper", "setting": "subjects with MDD [1]; [4]", "result": 0, "unit": "n"}, {"measurement": "patients who experienced acute cholecystitis", "setting": "subjects with MDD [1]; treatment period", "result": 0, "unit": "patients"}, {"measurement": "subjects who experienced TEAEs of special interest", "setting": "subjects with MDD [1]; treatment period, 13/85", "result": 15.3, "unit": "%"}, {"measurement": "subjects who discontinued due to treatment-emergent adverse events", "setting": "subjects with MDD [1]; treatment period, due to diarrhea, nausea, vomiting and headache", "result": 1, "unit": "subject"}, {"measurement": "subjects with TEAE diarrhea", "setting": "subjects with MDD [1]; treatment period, full safety analysis set, 7/85", "result": 8.2, "unit": "%"}, {"measurement": "subjects with TEAE headache", "setting": "subjects with MDD [1]; treatment period, full safety analysis set, 10/85", "result": 11.8, "unit": "%"}, {"measurement": "subjects who experienced at least one TEAE", "setting": "subjects with MDD [1]; treatment period, full safety analysis set, 40/85", "result": 47.1, "unit": "%"}, {"measurement": "sexual functioning (in words)", "setting": "subjects with MDD [2]; ASEX", "result": "notable improvements"}, {"measurement": "ASEX score", "setting": "subjects with MDD [2]; Baseline, n = 85", "result": 21.26}, {"measurement": "ASEX total score: mean change from treatment baseline (SD)", "setting": "subjects with MDD [2]; to week 6, lower score indicates improvement", "result": "−1.5 (4.02) points"}, {"measurement": "HAM-A6 score, aticaprant treated patients vs. placebo (in words)", "setting": "subjects with MDD [3]", "result": "greater improvement"}, {"measurement": "Change from Treatment Baseline in HAM-A6 Total Score: Arithmetic Mean (SD)", "setting": "subjects with MDD [3]; aticaprant 10 mg, 59 subjects analyzed", "result": "−2.73 ± 2.651", "unit": "scores on a scale"}]}
